Measured values: ChEMBL document CHEMBL6127063, “N-substituted-4-(pyridin-4-ylalkyl)piperazine-1-carboxamides and related compounds as Leishmania CYP51 and CYP5122A1 inhibitors” (Bioorg Med Chem, 2024)
pEC50: −log10 of the molar value.

Key:
[1] = system: Leishmania donovani; experiment: Antileishmanial activity against Leishmania donovani LV82 promastigotes assessed as inhibition of parasite proliferation; type: functional, organism-based
[2] = system: Leishmania donovani; experiment: Antileishmanial activity against Leishmania donovani promastigotes infected in mouse J774 cells assessed as inhibition of parasite proliferation; type: functional, organism-based
[3] = system: Leishmania donovani; experiment: Antileishmanial activity against Leishmania donovani LV82 promastigotes infected in female mouse Peritoneal macrophage cells incubated for 72 hrs by DAPI staining based analysis; type: functional, organism-based
[4] = system: Leishmania major; experiment: Effect on 4-CH2OH-LS sterol level in Leishmania major LV39 promastigotes assessed as fold change at 2 uM incubated for 48 hrs by LC-MS/MS analysis; type: functional
[5] = system: Leishmania major; experiment: Effect on Ergosterol level in Leishmania major LV39 promastigotes assessed as fold change at 2 uM incubated for 48 hrs by LC-MS/MS analysis; type: functional
[6] = system: Leishmania major; experiment: Effect on Cholesterol level in Leishmania major LV39 promastigotes assessed as fold change at 2 uM incubated for 48 hrs by LC-MS/MS analysis; type: functional
[7] = system: Leishmania major; experiment: Effect on lanosterol level in Leishmania major LV39 promastigotes assessed as fold change at 2 uM incubated for 48 hrs by LC-MS/MS analysis; type: functional
[8] = system: Leishmania major; experiment: Effect on 5-Dehydroepisterol level in Leishmania major LV39 promastigotes assessed as fold change at 2 uM incubated for 48 hrs by LC-MS/MS analysis; type: functional
[9] = system: Leishmania major; experiment: Effect on 4,14-Dimethylzymosterol level in Leishmania major LV39 promastigotes assessed as fold change at 2 uM incubated for 48 hrs by LC-MS/MS analysis; type: functional
[10] = system: Leishmania major; experiment: Effect on Ergosta-5,7-dienol level in Leishmania major LV39 promastigotes assessed as fold change at 2 uM incubated for 48 hrs by LC-MS/MS analysis; type: functional
[11] = system: Leishmania major; experiment: Effect on 14-Methylfecosterol level in Leishmania major LV39 promastigotes assessed as fold change at 2 uM incubated for 48 hrs by LC-MS/MS analysis; type: functional
[12] = system: Leishmania major; experiment: Effect on 14-methylzymosterol level in Leishmania major LV39 promastigotes assessed as fold change at 2 uM incubated for 48 hrs by LC-MS/MS analysis; type: functional
[13] = system: Leishmania major; experiment: Effect on Fecosterol level in Leishmania major LV39 promastigotes assessed as fold change at 25 uM incubated for 48 hrs by LC-MS/MS analysis; type: functional
[14] = system: Leishmania major; experiment: Effect on Ergostatetraenol level in Leishmania major LV39 promastigotes assessed as fold change at 25 uM incubated for 48 hrs by LC-MS/MS analysis; type: functional
[15] = system: Leishmania major; experiment: Effect on Cholesterol level in Leishmania major LV39 promastigotes assessed as fold change at 25 uM incubated for 48 hrs by LC-MS/MS analysis; type: functional
[16] = system: Leishmania major; experiment: Effect on 14-Methylfecosterol level in Leishmania major LV39 promastigotes assessed as fold change at 25 uM incubated for 48 hrs by LC-MS/MS analysis; type: functional
[17] = system: Leishmania major; experiment: Effect on 4-CH2OH-LS sterol level in Leishmania major LV39 promastigotes assessed as fold change at 25 uM incubated for 48 hrs by LC-MS/MS analysis; type: functional
[18] = system: Leishmania major; experiment: Effect on 7-Dehydrodesmosterol level in Leishmania major LV39 promastigotes assessed as fold change at 25 uM incubated for 48 hrs by LC-MS/MS analysis; type: functional
[19] = system: Leishmania major; experiment: Effect on 4,14-Dimethylzymosterol level in Leishmania major LV39 promastigotes assessed as fold change at 25 uM incubated for 48 hrs by LC-MS/MS analysis; type: functional
[20] = system: Leishmania major; experiment: Effect on Episterol level in Leishmania major LV39 promastigotes assessed as fold change at 25 uM incubated for 48 hrs by LC-MS/MS analysis; type: functional
[21] = system: Leishmania major; experiment: Effect on 4-Methylzymosterol level in Leishmania major LV39 promastigotes assessed as fold change at 25 uM incubated for 48 hrs by LC-MS/MS analysis; type: functional
[22] = system: Leishmania major; experiment: Effect on 5-Dehydroepisterol level in Leishmania major LV39 promastigotes assessed as fold change at 25 uM incubated for 48 hrs by LC-MS/MS analysis; type: functional
[23] = system: Leishmania major; experiment: Effect on lanosterol level in Leishmania major LV39 promastigotes assessed as fold change at 25 uM incubated for 48 hrs by LC-MS/MS analysis; type: functional
[24] = system: Leishmania major; experiment: Effect on Ergosta-5,7-dienol level in Leishmania major LV39 promastigotes assessed as fold change at 25 uM incubated for 48 hrs by LC-MS/MS analysis; type: functional
[25] = system: Leishmania major; experiment: Effect on Cholesta-7,24-dienol level in Leishmania major LV39 promastigotes assessed as fold change at 25 uM incubated for 48 hrs by LC-MS/MS analysis; type: functional
[26] = system: Leishmania major; experiment: Effect on Ergosterol level in Leishmania major LV39 promastigotes assessed as fold change at 25 uM incubated for 48 hrs by LC-MS/MS analysis; type: functional
[27] = system: Leishmania major; experiment: Effect on 14-methylzymosterol level in Leishmania major LV39 promastigotes assessed as fold change at 25 uM incubated for 48 hrs by LC-MS/MS analysis; type: functional
[28] = system: Leishmania major; experiment: Effect on Zymosterol level in Leishmania major LV39 promastigotes assessed as fold change at 25 uM incubated for 48 hrs by LC-MS/MS analysis; type: functional

SMILES: O=C(Nc1ccccc1Cl)N1CCN(Cc2ccncc2)CC1
- pEC50 [1]: < 4.00

SMILES: CC(C)(C)c1cccc(NC(=O)N2CCN(Cc3ccncc3)CC2)c1
- pEC50 [2]: < 4.30
- pEC50 [3]: < 4.30

SMILES: CC[C@@H]([C@H](C)O)n1ncn(-c2ccc(N3CCN(c4ccc(OC[C@@H]5CO[C@@](Cn6cncn6)(c6ccc(F)cc6F)C5)cc4)CC3)cc2)c1=O [POSACONAZOLE]
- fold change (FC) [4]: 1.4
- fold change (FC) [5]: 0.027
- fold change (FC) [6]: 1.3
- fold change (FC) [7]: 3.6
- fold change (FC) [8]: 0.02
- fold change (FC) [9]: 10
- fold change (FC) [10]: 0.022
- fold change (FC) [11]: 321
- fold change (FC) [12]: 3.1

SMILES: Cc1cccc(NC(=O)N2CCN(Cc3ccncc3)CC2)c1
- pEC50 [1]: < 4.00

SMILES: O=C(Nc1ccc(F)cc1)N1CCN(Cc2ccncc2)CC1
- pEC50 [1]: < 4.00

SMILES: COc1cc(NC(=O)N2CCN(Cc3ccncc3)CC2)cc(OC)c1
- pEC50 [1]: < 4.00

SMILES: Cc1ccc(NC(=O)N2CCN(Cc3ccncc3)CC2)cc1
- pEC50 [1]: < 4.00

SMILES: O=C(Nc1cccc(Cl)c1)N1CCN(Cc2ccncc2)CC1
- pEC50 [1]: < 4.00

SMILES: O=C(Nc1ccc(OCc2cc(C(F)(F)F)cc(C(F)(F)F)c2)cc1)N1CCN(CCCc2ccccc2)CC1
- pEC50 [1]: < 4.30

SMILES: COc1ccc(NC(=O)N2CCN(Cc3ccncc3)CC2)cc1
- pEC50 [1]: < 4.00

SMILES: OC(Cn1cncn1)(Cn1cncn1)c1ccc(F)cc1F [FLUCONAZOLE]
- fold change (FC) [13]: 0.6
- fold change (FC) [14]: 0.37
- fold change (FC) [15]: 0.53
- fold change (FC) [16]: 229
- fold change (FC) [17]: 0.42
- fold change (FC) [18]: 0.044
- fold change (FC) [19]: 1.8
- fold change (FC) [20]: 0.6
- fold change (FC) [21]: 0.6
- fold change (FC) [22]: 0.25
- fold change (FC) [23]: 0.47
- fold change (FC) [24]: 0.17
- fold change (FC) [25]: 0.38
- fold change (FC) [26]: 0.31
- fold change (FC) [27]: 4.5
- fold change (FC) [28]: 0.39

SMILES: Cc1cc(C)cc(NC(=O)N2CCN(Cc3ccncc3)CC2)c1
- pEC50 [1]: < 4.30

SMILES: O=C(Nc1cc(C(F)(F)F)cc(C(F)(F)F)c1)N1CCN(Cc2ccncc2)CC1
- pEC50 [3]: < 4.30

SMILES: O=C(Nc1ccc(Cl)cc1)N1CCN(Cc2ccncc2)CC1
- pEC50 [1]: < 4.00
